Target: T1, PKG-1α (Homo sapiens, UniProt Q13976)
T1 sequence (Q13976 2-671): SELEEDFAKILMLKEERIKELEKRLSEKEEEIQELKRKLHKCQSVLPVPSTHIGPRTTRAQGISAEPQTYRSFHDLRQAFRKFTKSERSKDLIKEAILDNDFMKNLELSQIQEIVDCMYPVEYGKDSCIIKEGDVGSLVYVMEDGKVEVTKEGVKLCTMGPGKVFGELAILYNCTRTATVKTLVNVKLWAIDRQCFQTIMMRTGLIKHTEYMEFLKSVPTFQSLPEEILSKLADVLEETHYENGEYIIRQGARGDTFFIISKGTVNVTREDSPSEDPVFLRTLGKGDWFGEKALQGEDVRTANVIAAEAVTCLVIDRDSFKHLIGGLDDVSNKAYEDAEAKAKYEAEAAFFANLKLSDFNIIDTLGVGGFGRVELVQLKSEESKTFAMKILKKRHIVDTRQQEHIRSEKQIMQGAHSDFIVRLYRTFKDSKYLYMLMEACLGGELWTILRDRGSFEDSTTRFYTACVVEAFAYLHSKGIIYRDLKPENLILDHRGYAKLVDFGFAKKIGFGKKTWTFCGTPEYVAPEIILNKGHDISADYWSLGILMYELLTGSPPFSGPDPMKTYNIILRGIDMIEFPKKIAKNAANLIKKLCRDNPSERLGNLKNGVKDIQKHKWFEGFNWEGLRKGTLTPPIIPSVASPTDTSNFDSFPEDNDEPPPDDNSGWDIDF
Experiment: [3H]cGMP binding assay on immunopurified PKG-1α
Parameters: an expression plasmid containing a full length WT-PKG-1α cDNA; made in house; host or cells: HEK-293T; the results paragraph b304 says PASMC
Conditions: WT-PKG-1α; SIN-1 treatment
Procedure: HEK-293T cells were transiently transfected with either the WT-PKG-1α or the Y247FPKG-1α cDNA using Effectene transfection reagent (Qiagen), according to the manufacturer's instructions. Briefly, the cells were split the day before the transfection to low cell densities (25%) and were transfected 24 h later. After 48 h of transfection, the cells were incubated in DMEM serum free media containing 1% FBS and antibiotics for 4 h and then treated with or without SIN-1 (500 μM), for 30 min. This method produced an approximate 70% transfection efficiency of HEK-293T cells, as measured using green fluorescent protein vectors. […]
The batches of supernatant were pooled, and 2 μg of anti-PKG-1α antibody per mg of protein were added to the extract and rocked at 4° C. […] After 15 min of agitation at 4° C., the beads were pelleted by centrifugation, and the supernatant containing the PKG-1α protein was collected, quantified using Bradford reagent, and stored at −80° C.
To assay the binding of cGMP to WT- and Y247F-PKG-1α the enzymes were saturated with cGMP by incubating 50 μl aliquots of the diluted PKG constructs for 60 min at room temperature with 50 μl of [^3H]cGMP and 150 μl of cGMP-binding assay mixture (25 mM K2HPO4, 25 mM KH2PO4, 1 mM EDTA, pH 6.8, 2M NaCl, 200 μM 3-isobutyl-1-methylxanthine). […] The dissociation constant (Kd) values were determined using GraphPad Prism graphics. […]

## 3-morpholinosydnonimine N-ethylcarbamide [SIN-1]
  maximal [3H]cGMP binding: significantly attenuated

Reference: US9551711B2, “Compositions and methods for detecting nitration of PKG-1α and methods of use thereof” (Augusta University Research Institute, Inc., priority 2013, dated 2017)
